In one assay the target is T1, recombinant human CK2 (Homo sapiens, UniProt P68400).
T1 construct: purchased Upstate
The experiment in a line: Cell-free CK2 assay. The format is biochemical. As to conditions: for inhibition at 0.5 µM: read-out: CK2: % inh 500 nM. The protocol:
Modulatory activity of compounds described herein is assessed in vitro in cell-free CK2 assays. These assays are described hereafter.
Test compounds in aqueous solution are added at a volume of 10 microliters, to a reaction mixture comprising 10 microliters Assay Dilution Buffer (ADB; 20mM MOPS, pH 7.2, 25 mM beta-glycerolphosphate, 5 mM EGTA, 1 mM sodium orthovanadate and 1 mM dithiothreitol), 10 microliters of substrate peptide (RRRDDDSDDD (SEQ ID NO:4), dissolved in ADB at a concentration of 1 mM), 10 microliters of recombinant human CK2 (25 ng dissolved in ADB; Upstate). Reactions are initiated by the addition of 10 microliters of ATP Solution (90% 75 mM MgC12, 75 micromolar ATP dissolved in ADB; 10% [γ-^33P]ATP (stock 1 mCi/100 μl; 3000 Ci/mmol (Perkin Elmer) and maintained for 10 minutes at 30 degrees C. The reactions are quenched with 100 microliters of 0.75% phosphoric acid, then transferred to and filtered through a phosphocellulose filter plate (Millipore). After washing each well 5 times with 0.75% phosphoric acid, the plate is dried under vacuum for 5 min and, following the addition of 15 ul of scintillation fluid to each well, the residual radioactivity is measured using a Wallac […].

For assay [1], the system named is HCT-116 human colorectal carcinoma cells. The assay can be described thus: Cell proliferation assay (Alamar Blue), HCT-116. As to conditions: HCT-116 cell line. The format is cell-based. The protocol:
(§1) A representative cell-proliferation assay protocol using Alamar Blue dye (stored at 4° C., use 20 ul per well) is described hereafter.
(§2) 96-Well Plate Setup and Compound Treatment
(§3) • a. Split and trypsinize cells. • b. Count cells using hemocytometer. • c. Plate 4,000-5,000 cells per well in 100 μl of medium and seed into a 96-well plate according to the following plate layout. Add cell culture medium only to wells B10 to B12. Wells B1 to B9 have cells but no compound added.
(§4) • d. Add 100 μl of 2× drug dilution to each well in a concentration shown in the plate layout above. At the same time, add 100 μl of media into the control wells (wells B10 to B12). Total volume is 200 μl/well. • e. Incubate four (4) days at 37° C., 5% CO2 in a humidified incubator. • f. Add 20 μl Alamar Blue reagent to each well. • g. Incubate for four (4) hours at 37° C., 5% CO2 in a humidified incubator. • h. Record fluorescence at an excitation wavelength of 544 nm and emission wavelength of 590 nm using a microplate reader.
(§5) In the assays, cells are cultured with a test compound for approximately four days, the dye is then added to the cells and fluorescence of […] dye is detected after approximately four hours. Different types of cells can be utilized in the assays (e.g., HCT-116 human colorectal carcinoma cells, PC-3 human prostatic cancer cells and MiaPaca human pancreatic carcinoma cells).

For another assay, the system named is K562. The assay can be described thus: Cell proliferation assay (Alamar Blue), K562. The class given is cell-based. As to conditions: Homo sapiens; K562 cell line. The protocol: as §1, §2, §3, §4, §5
In another assay the test system is MV-4-11. The assay can be described thus: Cell proliferation assay (Alamar Blue), MV-4-11. The format is cell-based. As to conditions: Homo sapiens, MV4-11; MV-4-11 cell line. The protocol: as §1, §2, §3, §4, §5
The test system of assay [2] is MiaPaca human pancreatic carcinoma cells. The assay can be described thus: Cell proliferation assay (Alamar Blue), MiaPaCa. Conditions: MIA PaCa-2, MiaPaCa cell line. The format is cell-based. The method, then: as §1, §2, §3, §4, §5
A further assay relates to BxPC3. The experiment in a line: Cell proliferation assay (Alamar Blue), BxPC3. Conditions: Homo sapiens, BXPC-3; BxPC3 cell line; read-out: Bx-PC3. The class given is cell-based. The method, then:
as §1, §2, §3, §4, §5

A further assay concerns MDA-MB231. The assay can be described thus: Cell proliferation assay (Alamar Blue), MDA-MB231. The class given is cell-based. Conditions: Homo sapiens, MDA-MB-231; MDA-MB231 cell line. The protocol:
as §1, §2, §3, §4, §5

In assay [3] the test system is PC-3 human prostatic cancer cells. The assay can be described thus: Cell proliferation assay (Alamar Blue), PC3. The class given is cell-based. Conditions: PC3 cell line. The protocol:
as §1, §2, §3, §4, §5

pIC50: −log10 of the molar value.

T1 sequence (P68400 whole entry): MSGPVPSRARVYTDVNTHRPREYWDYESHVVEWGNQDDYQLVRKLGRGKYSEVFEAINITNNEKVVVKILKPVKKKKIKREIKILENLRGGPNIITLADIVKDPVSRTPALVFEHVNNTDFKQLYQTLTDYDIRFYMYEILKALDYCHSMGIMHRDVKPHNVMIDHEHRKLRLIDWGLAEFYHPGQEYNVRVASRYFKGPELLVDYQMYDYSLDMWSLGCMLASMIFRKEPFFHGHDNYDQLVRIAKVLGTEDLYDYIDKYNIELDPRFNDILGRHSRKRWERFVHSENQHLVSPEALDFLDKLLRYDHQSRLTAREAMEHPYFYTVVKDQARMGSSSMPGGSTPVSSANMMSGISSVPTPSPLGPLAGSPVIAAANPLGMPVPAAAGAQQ
T1 sequence (P67870 whole entry partner): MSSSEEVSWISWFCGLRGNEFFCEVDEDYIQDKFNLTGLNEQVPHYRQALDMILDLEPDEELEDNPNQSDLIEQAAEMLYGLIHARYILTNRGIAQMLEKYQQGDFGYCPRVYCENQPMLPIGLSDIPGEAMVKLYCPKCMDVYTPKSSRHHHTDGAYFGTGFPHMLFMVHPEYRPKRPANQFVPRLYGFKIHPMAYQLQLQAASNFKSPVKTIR

Consider `Cn1cc(-c2nc3cc(C(=O)O)ccc3c3cnccc23)cn1`, for which the pIC50 at recombinant human CK2 is 8.40; in assay [1], below 5.00; in the assay with K562, below 5.00; with MV-4-11, below 5.00; in assay [2] it was below 5.00; with BxPC3, below 5.00. The compound also gave a pIC50 with MDA-MB231 below 5.00. On recombinant human CK2, the inhibition at 0.5 µM came out at 98%.
As to `NC(=O)c1ccc2c(c1)nc(-c1ccccc1)c1ccncc12`, the inhibition at 0.5 µM at recombinant human CK2 worked out at 27%. The values for the pIC50 (in assay [1]; in the assay on K562; in the assay with MV-4-11) were below 5.00, below 5.00 and 5.85, respectively.
For the compound `CCCNC(=O)c1ccc2c(c1)nc(-c1ccccc1)c1ccncc12`, on recombinant human CK2, the inhibition at 0.5 µM is -26%. Also, the pIC50 (in assay [1]; in the assay with K562; with MV-4-11) was below 5.00 in each case.
On to `O=C(NC1CC1)c1ccc2c(c1)nc(-c1ccccc1)c1ccncc12`, for which the inhibition at 0.5 µM on recombinant human CK2 was -9%. Also, the pIC50 (in assay [1]; in the assay on K562; in the assay with MV-4-11) was below 5.00 throughout.
Turning to `CN(C)C(=O)c1ccc2c(c1)nc(-c1ccccc1)c1ccncc12`, at recombinant human CK2, the inhibition at 0.5 µM worked out at 0%. The pIC50 (in assay [1]; with K562; with MV-4-11) was below 5.00 each time.
In the case of `Cn1cc(-c2nc3cc(C(N)=O)ccc3c3cnccc23)cn1`, on recombinant human CK2, the inhibition at 0.5 µM is 7%. For the same compound, the pIC50 in assay [1] was below 5.00; in the assay with K562, below 5.00; in the assay on MV-4-11, 5.54.
In the case of `CCCNC(=O)c1ccc2c(c1)nc(-c1cnn(C)c1)c1ccncc12`, the inhibition at 0.5 µM at recombinant human CK2 is -21%. Moreover, the pIC50 (in assay [1]; in the assay on K562; with MV-4-11) was below 5.00 in each case.
Take `Cn1cc(-c2nc3cc(C(=O)NC4CC4)ccc3c3cnccc23)cn1`: the inhibition at 0.5 µM on recombinant human CK2 was -15%. In addition, the pIC50 in assay [1] is 6.00; in the assay with MV-4-11, 5.57.
As to `CN(C)C(=O)c1ccc2c(c1)nc(-c1cnn(C)c1)c1ccncc12`, at recombinant human CK2, the inhibition at 0.5 µM was -13%. Also, the pIC50 (in assay [1]; with K562; in the assay with MV-4-11) was below 5.00 each time.
As to `CN1CCN(C(=O)c2ccc3c(c2)nc(-c2ccccc2)c2ccncc23)CC1`, on recombinant human CK2, the inhibition at 0.5 µM was 57%. Also, the pIC50 (in assay [1]; in the assay on K562; in the assay with MV-4-11) was below 5.00 each time.
In the case of `CN1CCCN(C(=O)c2ccc3c(c2)nc(-c2ccccc2)c2ccncc23)CC1`, the inhibition at 0.5 µM at recombinant human CK2 is -15%. For the same compound, the pIC50 (in assay [1]; with K562; in the assay on MV-4-11) was below 5.00 each time.
Take `CC(=O)Nc1cccc(-c2nc3cc(C(=O)O)ccc3c3cnccc23)c1`: the pIC50 on recombinant human CK2 was 7.38; in assay [1], below 5.00; in the assay on K562, below 5.00; in the assay on MV-4-11 it was below 5.00; in assay [2], below 5.00; in the assay with BxPC3 it was below 5.00. The pIC50 in the assay on MDA-MB231 is below 5.00. The inhibition at 0.5 µM at recombinant human CK2 was found to be 93%.
Take `Nc1cccc(-c2nc3cc(C(=O)O)ccc3c3cnccc23)c1`: the pIC50 at recombinant human CK2 is 7.57; in assay [1], below 5.00; with MV-4-11 it was below 5.00; in assay [2] it was below 5.00; with BxPC3, below 5.00; in the assay on MDA-MB231, below 5.00. The inhibition at 0.5 µM at recombinant human CK2 came out at 97%.
As for `CN1CCCN(C(=O)c2ccc3c(c2)nc(-c2cccc(N)c2)c2ccncc23)CC1`, at recombinant human CK2, the inhibition at 0.5 µM was -21%. In addition, in assay [1], the pIC50 is below 5.00.
`Cc1cnc(CNC(=O)c2ccc3c(c2)nc(-c2cccc(N)c2)c2ccncc23)cn1`: the inhibition at 0.5 µM at recombinant human CK2 is -24%. The same compound had a pIC50 in assay [1] below 5.00.
The matching figures for `Nc1cccc(-c2nc3cc(C(=O)NN4CCOCC4)ccc3c3cnccc23)c1`: -28% and below 5.00.
For `Nc1cccc(-c2nc3cc(C(=O)NCCN4CCCC4)ccc3c3cnccc23)c1`, in that order: 56% and below 5.00.
For `CC(=O)Nc1cccc(-c2nc3cc(C(=O)N4CCN(C)CC4)ccc3c3cnccc23)c1`, in that order: 6% and below 5.00.
Consider `CC(=O)Nc1cccc(-c2nc3cc(C(=O)N4CCCN(C)CC4)ccc3c3cnccc23)c1`, for which the inhibition at 0.5 µM at recombinant human CK2 was found to be 30%. In addition, in assay [1], the pIC50 was below 5.00.
`CC(=O)Nc1cccc(-c2nc3cc(C(=O)NCc4cnc(C)cn4)ccc3c3cnccc23)c1`: the inhibition at 0.5 µM at recombinant human CK2 was -6%. In assay [1], this compound had a pIC50 below 5.00.
The matching figures for `CC(=O)Nc1cccc(-c2nc3cc(C(=O)NN4CCOCC4)ccc3c3cnccc23)c1`: 19% and below 5.00.
Regarding `CC(=O)Nc1cccc(-c2nc3cc(C(=O)NCCN4CCCC4)ccc3c3cnccc23)c1`, on recombinant human CK2, the pIC50 was 6.84 and the inhibition at 0.5 µM amounted to 89%. In assay [1], this compound showed a pIC50 below 5.00.
`CC(=O)Nc1cccc(-c2nc3cc(C(=O)NCC4CCCCN4C)ccc3c3cnccc23)c1` (stereo not drawn): on recombinant human CK2, the inhibition at 0.5 µM amounted to 40%. In assay [1], the pIC50 was below 5.00.
For `COC(=O)c1ccc2c(c1)nc(-c1cnn(C)c1)c1nc(S(C)(=O)=O)ncc12`, the inhibition at 0.5 µM on recombinant human CK2 amounted to 11%. The compound also had a pIC50 in assay [1] of 6.05.
As to `O=C(O)c1ccc2c(c1)nc(-c1ccccc1OC(F)(F)F)c1ccncc12`, the inhibition at 0.5 µM at recombinant human CK2 turned out to be 23%. Further, the pIC50 in assay [1], in assay [2] and in assay [3] was below 5.00 each time.
Turning to `N#Cc1cccc(-c2nc3cc(C(=O)O)ccc3c3cnccc23)c1`, the pIC50 on recombinant human CK2 is 7.35; in assay [1], below 5.00; in assay [2], below 5.00; in assay [3] it was below 5.00. Moreover, at recombinant human CK2, the inhibition at 0.5 µM came out at 98%.
For `Fc1ccc2c(c1)nc(-c1ccncc1)c1ccncc12`, the inhibition at 0.5 µM at recombinant human CK2 was -37%.
The same measure, in the same setting: the same measure for `Fc1ccc2c(c1)nc(-c1cccc(OC(F)(F)F)c1)c1ccncc12`: -35%.
Same read-out and setting: under `Fc1ccc2c(c1)nc(-c1ccccc1)c1ccncc12` stands -51%.
Still for that read-out and setting: the same measure for `Cc1noc(C)c1-c1nc2cc(C(=O)O)ccc2c2cnccc12`: 52%; for `COC(=O)c1ccc2c(c1)nc(-c1c(C)noc1C)c1ccncc12`: -5%.
Turning to `COC(=O)c1ccc2c(c1)nc(-c1cscc1C)c1ccncc12`, the inhibition at 0.5 µM at recombinant human CK2 is 4%.
The same measure, in the same setting: under `Cc1cscc1-c1nc2cc(C(=O)O)ccc2c2cnccc12` stands 87%.
Same read-out and setting: the same measure for `O=C(O)c1ccc2c(c1)nc(-c1ccc(Cl)s1)c1ccncc12`: 99%.
For the compound `O=C(O)c1ccc2c(c1)nc(-c1ccccc1)c1ccncc12` [5-phenylbenzo[c][2,6]naphthyridine-8-carboxylic acid], the pIC50 was 7.89 on recombinant human CK2; below 5.00 in assay [1]; below 5.00 in the assay with K562; 5.09 in the assay with MV-4-11; below 5.00 in assay [2]; below 5.00 with BxPC3. The compound further showed a pIC50 in the assay on MDA-MB231 below 5.00. Further, at recombinant human CK2, the inhibition at 0.5 µM was determined as 97%.
As to `COC(=O)c1ccc2c(c1)nc(-c1cnn(C)c1)c1ccncc12` [Methyl 5-(1-methyl-1H-pyrazol-4-yl)benzo[c][2,6]naphthyridine-8-carboxylate], the inhibition at 0.5 µM on recombinant human CK2 was -49%. In addition, the pIC50 in assay [1] is 5.60; in the assay with K562, below 5.00; in the assay on MV-4-11 it was below 5.00.
Turning to `COC(=O)c1ccc2c(c1)nc(-c1ccccc1)c1ccncc12` [Methyl 5-phenylbenzo[c][2,6]naphthyridine-8-carboxylate], at recombinant human CK2, the inhibition at 0.5 µM is -34%. The pIC50 in assay [1] was 5.54; in the assay on K562 it was below 5.00; in the assay with MV-4-11 it was below 5.00.
With `COC(=O)c1ccc2c(c1)nc(-c1ccccc1)c1nc(SC)ncc12` [methyl 3-(methylthio)-5-phenylpyrimido[4,5-c]quinoline-8-carboxylate], the inhibition at 0.5 µM on recombinant human CK2 is -26%. The compound further gave a pIC50 in assay [1] of 5.70.

Source of the values: patent US7910600B2, “Therapeutic kinase modulators” (Cylene Pharmaceuticals, Inc., priority 2007, dated 2011).
